Results as given in paper PMC9675978 (The Journal of steroid biochemistry and molecular biology, 2022).
Substitutions are numbered along the chain they refer to. Counter-ions that a name gives are not always drawn.

How the values were obtained:
AKR1C3 K104D [1] = molecular target: T1, AKR1C3 K104D (Homo sapiens, UniProt P42330, K104D); assay: Specific activity after preincubation at 37 °C with cofactor; type: biochemical; conditions: alone roughly 50%
T1 sequence (P42330 1-323 K104D): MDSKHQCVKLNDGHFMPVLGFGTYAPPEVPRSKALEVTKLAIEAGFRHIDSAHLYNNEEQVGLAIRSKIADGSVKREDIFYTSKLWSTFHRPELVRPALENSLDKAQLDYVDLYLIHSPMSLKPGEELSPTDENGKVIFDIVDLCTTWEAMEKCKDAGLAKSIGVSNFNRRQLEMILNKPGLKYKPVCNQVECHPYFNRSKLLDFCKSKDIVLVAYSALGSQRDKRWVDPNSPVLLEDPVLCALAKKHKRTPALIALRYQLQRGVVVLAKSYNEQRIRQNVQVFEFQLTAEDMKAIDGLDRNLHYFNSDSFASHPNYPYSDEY

AKR1C3 E77G = molecular target: T2, AKR1C3 E77G (Homo sapiens, UniProt P42330, E77G); assay: Kd for NAD; type: binding; conditions: read-out: Kd NADP+, 0.5 μM protein, pH 7.0, 25 °C, Morrison equation
T2 sequence (P42330 1-323 E77G): T1 sequence (P42330 1-323 K104D) with E77G, D104K

AKR1C3 H5Q = molecular target: T3, AKR1C3 H5Q (Homo sapiens, UniProt P42330, H5Q); assay: Kd for NAD; type: binding; conditions: read-out: Kd NADP+, 0.5 μM protein, pH 7.0, 25 °C, Morrison equation
T3 sequence (P42330 1-323 H5Q): T1 sequence (P42330 1-323 K104D) with H5Q, D104K

AKR1C3 = conditions: cited from earlier work
AKR1C3 WT = molecular target: T4, AKR1C3 WT (Homo sapiens, UniProt P42330); assay: Kd for NAD; type: binding; conditions: read-out: Kd NADP+, 0.5 μM protein, pH 7.0, 25 °C, Morrison equation
T4 sequence (P42330 1-323): T1 sequence (P42330 1-323 K104D) with D104K

AKR1C3 K104D [2] = molecular target: T1, AKR1C3 K104D; assay: Kd for NAD; type: binding; conditions: read-out: Kd NADP+, 0.5 μM protein, pH 7.0, 25 °C, Morrison equation

SMILES	K104D activity remaining (% of activity at 0 min) (AKR1C3 K104D [1]; K104D preincubated at 37 °C with 2 mM NAD+, four hours)	Kd (AKR1C3 E77G)	Kd (AKR1C3 H5Q)	binding affinity of NADP+ relative to NAD+ (AKR1C3)	K104D activity remaining (% of activity at 0 min) (AKR1C3 K104D [1]; K104D preincubated at 37 °C with 2 mM NADP+, over four hours)	Kd (AKR1C3 WT)	Kd (AKR1C3 K104D [2])
NC(=O)c1ccc[n+]([C@@H]2O[C@H](COP(=O)([O-])OP(=O)(O)OC[C@H]3O[C@@H](n4cnc5c(N)ncnc54)[C@H](O)[C@@H]3O)[C@@H](O)[C@H]2O)c1 [NAD+, nicotinamide adenine dinucleotide Grade II free acid]	roughly 75%	–	–	–	–	–	–
NC(=O)c1ccc[n+]([C@@H]2O[C@H](COP(=O)([O-])OP(=O)(O)OC[C@H]3O[C@@H](n4cnc5c(N)ncnc54)[C@H](OP(=O)(O)O)[C@@H]3O)[C@@H](O)[C@H]2O)c1 [NADP+, nicotinamide adenine dinucleotide phosphate oxidized disodium salt]	–	120 ± 35 nM	120 ± 33 nM	~1000 times	100%	110 ± 17 nM	100 ± 47 nM
